In US4882272A, “High molecular weight kininogen assay” (Temple University - of the Commonwealth System of Higher …, priority 1987, dated 1989):
Peptide text beside a SMILES is read from it.

Molecular target: T1, human factor XIa (Homo sapiens, UniProt P03951)
T1 construct: converted to the active enzyme factor XIa by factor XIIa
Experiment: Hydrolysis of chromogenic substrate S-2366 by factor XIa
Assay type: biochemical
Experimental: According to one embodiment, a chromogenic substrate for factor XIa is incubated with the assay reaction mixture. The substrate should, under the conditions of the assay, be capable of hydrolysis by factor XIa to yield a hydrolysis product whose appearance may be monitored spectrophotometrically or by a microplate reader. Such substrates include, for example, L-pyroglutamyl-L-prolyl-L-arginine-p-nitroanilide and H-D-leucylthreonyl-arginine-p-nitroanilide, available from KabiVitrum in hydrochloride form as "S-2366" and "S-2511", respectively. The enzymatic activity of factor XIa catalyzes the hydrolysis of the peptide-p-nitroanilide bond, releasing the chromophore p-nitroaniline. The appearance of p-nitroaniline may be measured spectrophotometrically after a fixed hydrolysis time, at 405 nm. The change in absorbance is proportional to the enzyme activity.
S-2366 is the preferred substrate.

T1 sequence (P03951 388-625 limits assumed): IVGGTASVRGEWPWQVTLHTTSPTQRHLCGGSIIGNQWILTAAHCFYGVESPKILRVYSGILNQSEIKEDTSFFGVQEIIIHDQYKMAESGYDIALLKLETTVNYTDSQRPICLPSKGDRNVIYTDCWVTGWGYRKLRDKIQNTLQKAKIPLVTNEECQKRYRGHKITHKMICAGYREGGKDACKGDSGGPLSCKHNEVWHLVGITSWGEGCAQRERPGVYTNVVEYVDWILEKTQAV
T1 sequence (P03951 19-387 partner limits assumed): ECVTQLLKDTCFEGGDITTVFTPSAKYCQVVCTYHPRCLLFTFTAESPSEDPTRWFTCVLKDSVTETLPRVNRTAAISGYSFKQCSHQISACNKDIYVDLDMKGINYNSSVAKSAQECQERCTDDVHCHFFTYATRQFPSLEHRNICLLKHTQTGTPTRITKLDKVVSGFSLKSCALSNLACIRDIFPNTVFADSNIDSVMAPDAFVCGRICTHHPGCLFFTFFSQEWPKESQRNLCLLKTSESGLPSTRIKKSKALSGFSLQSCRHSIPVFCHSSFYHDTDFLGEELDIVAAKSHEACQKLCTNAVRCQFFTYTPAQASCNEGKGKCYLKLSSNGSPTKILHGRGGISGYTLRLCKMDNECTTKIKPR

## N=C(N)NCCC[C@H](NC(=O)[C@@H]1CCCN1C(=O)[C@@H]1CCC(=O)N1)C(=O)Nc1ccc([N+](=O)[O-])cc1 [S-2366, L-pyroglutamyl-L-prolyl-L-arginine-p-nitroanilide] (HELM PEPTIDE1{[Glp].P.R.[O=[N+]([O-])c1ccc(N[*:1])cc1]}$$$$V2.0)
  Kcat to Km ratio: 5.5e+06 M⁻¹ s⁻¹
